This note sets out measurements from publication PMC5490399, “Glycosaminoglycan Binding and Non-Endocytic Membrane Translocation of Cell-Permeable Octaarginine Monitored by Real-Time In-Cell NMR Spectroscopy” (Pharmaceuticals, 2017).

What all share (type): cell-based, human
The test system of series [1] is HL60 cells. The protocol: (§1) One-dimensional in-cell ^19F NMR measurements were carried out at 376.2 MHz by using a JEOL ECA400 NMR spectrometer equipped with a superconducting magnet of 9.4 T. A multinuclear probe (JEOL, NM40T10A/AT) for a 10-mm diameter tube was used. Detailed procedures of the measurement are described elsewhere. Briefly, HL60 cells (the final concentration, 1 × 10^7 cells/mL) were suspended in phosphate-buffered saline (PBS, pH 7.4) at 4 °C and put into a NMR tube. In order to confirm no contribution of energy-dependent endocytosis at 4 °C, the comparative measurement was also performed at 37 °C. To avoid cellular toxicity, the amount of D2O used for the signal lock was decreased to 10%. The sample was gently rotated to prevent the sedimentation of the cells. Field-gradient shimming was applied before the addition of the peptide, to quickly attain the spectral resolution. The measurements started immediately after the thermal equilibrium was attained, 1.5 min after the addition of the ^19F-labeled peptides. […] Cell viability, assessed by the trypan blue staining after the NMR measurement at 4 °C, was 92% ± 1% for ^19F-R8 and 94% ± 1% for ^19F-T6 with respect to the control value, 94% ± 2%. […]
Cell peptide concentrations inside and outside were estimated by using the signal intensities of real-time ^19F NMR difference spectra in Figure 2b. Figure A1 illustrates how peptide concentrations were determined from the ^19F NMR spectra. […]
The concentration of these three components can be evaluated from the signal intensities by integrating the respective peak areas. […] Since the total ^19F-R8 concentration is 80 μM, the concentrations of free, bound to GAG, and membrane components are calculated to be […], 9, and 5 μM, respectively.
Figure A1 Illustration of the signal intensity estimation in the ^19F NMR difference spectrum. […] The concentration of these three components can be evaluated from the signal intensities by integrating the respective peak areas (see text).

Series [2] concerns HL60 cells. As to the kind of experiment: Steady state 19F NMR after cell fractionation (final distribution). Conditions: 19F NMR at 4 °C. The method, then: In the previous sections, we succeeded in comprehensive observation and quantitative analysis of the non-endocytic translocation of ^19F-R8 to the cell inside. To confirm that ^19F-R8 is actually transferred to cytosol across the cell membrane, the final distribution of ^19F-R8 was evaluated by cell fractionation after equilibrium was attained in real-time NMR measurements. Membrane solubilization and centrifugation techniques were combined in accordance with Scheme 1. First, we examined how much of ^19F-R8 was finally bound to cells. In Figure 7a, the ^19F NMR spectra of ^19F-R8 in the supernatant I is compared with total ^19F-R8 as a control at 4 °C. The ^19F NMR signal intensity of the supernatant I corresponds to ^19F-R8 that is still in a free (unbound) state under equilibrium. […] The value is consistent with the result of the real-time in-cell NMR measurement showing about 65 μM (81%) of ^19F-R8 is remaining in a free state after the equilibrium is attained (Figure 6). Next, to confirm that ^19F-R8 is actually bound to HL60 cell, the cell pellet I was solubilized by lysis buffer containing 1% Triton X-100. After the centrifugation, the supernatant II was subject to ^19F NMR measurement at 4 °C. The spectrum is shown in Figure 7b as Lysate, and 13% of the initial ^19F-R8 was detected.
It is considered that three components of ^19F-R8 are contained in the Lysate. They include ^19F-R8 bound to GAG or cell membrane, and ^19F-R8 in cytosol. We separated these components as the supernatant III and the pellet III by centrifuging the Lysate at 100,000× g. Supernatant III consists of ^19F-R8 in cytosol, and pellet III contains ^19F-R8 bound to GAG or cell membrane (referred as Membrane); see Scheme 1. […] It should be noted that the observed chemical shift of NMR signal in this system is too complicated to understand. For example, the cell solubilization exposes ^19F-R8 to numerous molecules derived from cells. Also, the cytosol fraction was obtained by lyophilization of 50 mL lysis buffer A. This leads to the increased concentrations of components (Triton X-100, Tris-HCl, EDTA, NaCl in lysis buffer A) in the final sample to be measured. The condition of the solvent such as ionic strength and pH affects the chemical shift of ^19F-R8 NMR signal. Thus the integral NMR intensity is useful for the steady state NMR spectra because it is basically proportional to the nuclear concentration.
The amount of ^19F-R8 finally delivered to the cytosol was quantified by ^19F NMR under equilibrium in combination with the cell fractionation using membrane solubilization and centrifugation. The cell fractionation procedures are summarized in Scheme 1. After the real-time ^19F NMR measurement, 4 mL of the sample were centrifuged at 1500× g for 5 min at 4 °C. Pellet I was washed twice with 4 mL of PBS and centrifuged again. Then the 8 mL of supernatant I was collected and subject to ^19F NMR measurement at 4 °C, to quantify free ^19F-R8. Next, 4 mL of lysis buffer A (1% Triton X-100, 50 mM Tris-HCl, 50 mM EDTA, 150 mM NaCl, 10% D2O) was added to pellet I, and left for 15 min on ice to complete the cell membrane solubilization. The solution was centrifuged at 15,000× g for 15 min at 4 °C, to separate pellet II and supernatant II. Then, supernatant II was collected and subjected to ^19F NMR measurement at 4 °C (called Lysate). After measurement, 50 mL of lysis buffer A was added and centrifuged at 100,000× g for 3 h at 4 °C. […]

Series [3] relates to HL60 cells. Conditions: 100 μM. The protocol:
as §1, with “peptides. The final concentrations of ^19F-R8 and ^19F-T6 were 80 μM and 100 μM, respectively, and these were high enough to observe non-endocytic translocation.” for “peptides.”

Non-standard residues stand in square brackets, D forms with d. Residues, ends and D or L forms follow the SMILES beside them. Phe(4-CF3) = N[C@@H](Cc1ccc(C(F)(F)F)cc1)C(=O)O

Take `CC(=O)N[C@@H](Cc1ccc(C(F)(F)F)cc1)C(=O)N[C@@H](CCCNC(=N)N)C(=O)N[C@@H](CCCNC(=N)N)C(=O)N[C@@H](CCCNC(=N)N)C(=O)N[C@@H](CCCNC(=N)N)C(=O)N[C@@H](CCCNC(=N)N)C(=O)N[C@@H](CCCNC(=N)N)C(=O)N[C@@H](CCCNC(=N)N)C(=O)N[C@@H](CCCNC(=N)N)C(N)=O` [^19F-R8]: the “time at which transfer to cytosol was first observed” value in series [1] (HL60, PBS pH 7.4, 4 °C, 80 μM peptide) is “around 5 min”. Moreover, the “degradation of peptide in the presence of HL60 cells (integral 19F NMR intensity)” value in series [1] (pH 7.4) was “no degradation”. The “peptide in a free state (supernatant I) under equilibrium” value in series [2] (HL60, after real-time NMR at 4 °C, centrifugation 1500× g, pH 7.4, versus total peptide) is 77%. Also, the “peptide in cytosol fraction (supernatant III)” value in series [2] (Lysate centrifuged at 100,000× g) is given as “observed in the cytosol fraction”. Further, the “peptide in membrane fraction (pellet III)” value in series [2] (Lysate centrifuged at 100,000× g, equilibrium state) is given as “within the experimental error”. Also, the “peptide detected in Lysate (supernatant II), of the initial peptide” value in series [2] (pellet I solubilized with 1% Triton X-100 lysis buffer, 15,000× g, pH 7.5) was 13%. Moreover, the “peptide in DNA and cytoskeleton fraction (pellet II)” value in series [2] (pellet II solubilized) was “not yet detectable”.

For `CC[C@H](C)[C@H](NC(=O)CNC(=O)[C@H](CO)NC(=O)[C@H](CC(=O)O)NC(=O)[C@H](Cc1ccc(C(F)(F)F)cc1)NC(=O)[C@@H](NC(=O)[C@@H](N)[C@@H](C)O)C(C)C)C(=O)N[C@@H](CO)C(=O)N[C@@H](CCC(=O)O)C(=O)N[C@H](C(=O)N[C@@H](CCCNC(=N)N)C(=O)O)C(C)C` [^19F-T6, reference compound] (H-TV[Phe(4-CF3)]DSGISEVR-OH), in series [1], the “interaction with HL60 cells (change of 19F NMR and difference spectrum)” value is recorded as “no interaction occurs”. Also, in series [3], the Cell viability is recorded as 94% ± 1%.
